Source: PubChem BioAssay AID256 (DTP/NCI, 2004)
“And” between values parts separate entries of the source, which are not always exact repeats. Equal values may be shown once. Toxic doses and inconclusive results are not listed. Rule for the calls: active = survival T/C of 150% or more; inactive = T/C below 125% in these data.

Tested on: CD2F1 mice, L1210 leukemia ip, survival T/C
Assay: NCI In Vivo Anticancer Drug Screen. Data for tumor model L1210 Leukemia (intraperitoneal) in CD2F1 (CDF1) mice
Conditions: higher = longer survival
Method in brief: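 Activity against a transplanted murine tumor was judged by comparing the compound group with a vehicle group. The outcome in the treated animals was divided by that in the controls.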

[1] = endpoint: mean survival time, dose: 100.0 mg/kg/injection, schedule: Q01DX009 (ip), vehicle: saline with Tween-80
[2] = endpoint: mean survival time, dose: 200.0 mg/kg/injection, schedule: Q01DX009 (ip), vehicle: saline with Tween-80
[3] = endpoint: mean survival time, dose: 400.0 mg/kg/injection, schedule: Q01DX009 (ip), vehicle: saline with Tween-80
[4] = endpoint: mean survival time, dose: 100.0 mg/kg/injection, schedule: Q01DX001 (ip), vehicle: saline
[5] = endpoint: mean survival time, dose: 200.0 mg/kg/injection, schedule: Q01DX001 (ip), vehicle: saline
[6] = endpoint: mean survival time, dose: 400.0 mg/kg/injection, schedule: Q01DX001 (ip), vehicle: saline
[7] = endpoint: mean survival time, dose: 50.0 mg/kg/injection, schedule: Q01DX009 (ip), vehicle: Klucel (hydroxypropylcellulose) (HPC)
[8] = endpoint: mean survival time, dose: 100.0 mg/kg/injection, schedule: Q01DX009 (ip), vehicle: Klucel (hydroxypropylcellulose) (HPC)
[9] = endpoint: mean survival time, dose: 200.0 mg/kg/injection, schedule: Q01DX009 (ip), vehicle: Klucel (hydroxypropylcellulose) (HPC)
[10] = endpoint: mean survival time, dose: 50.0 mg/kg/injection, schedule: Q01DX009 (ip), vehicle: saline with Tween-80
[11] = endpoint: mean survival time, dose: 100.0 mg/kg/injection, schedule: Q04DX003 (ip), vehicle: saline with Tween-80
[12] = endpoint: mean survival time, dose: 200.0 mg/kg/injection, schedule: Q04DX003 (ip), vehicle: saline with Tween-80
[13] = endpoint: mean survival time, dose: 400.0 mg/kg/injection, schedule: Q04DX003 (ip), vehicle: saline with Tween-80
[14] = endpoint: mean survival time, dose: 25.0 mg/kg/injection, schedule: Q04DX003 (ip), vehicle: saline with Tween-80
[15] = endpoint: mean survival time, dose: 50.0 mg/kg/injection, schedule: Q04DX003 (ip), vehicle: saline with Tween-80

Measured: T/C

COCCCNC(=O)CS(=O)(=O)c1ccc(C)cc1
inactive: endpoint: mean survival time, dose: 100.0 mg/kg/injection, schedule: Q04DX003 (ip), vehicle: saline 102 % of control | endpoint: mean survival time, dose: 200.0 mg/kg/injection, schedule: Q04DX003 (ip), vehicle: saline 98 % of control | endpoint: mean survival time, dose: 400.0 mg/kg/injection, schedule: Q04DX003 (ip), vehicle: saline 102 % of control

Cc1ccc(S(=O)(=O)c2ccc(F)cc2)cc1
inactive: [1] 100 % of control | [2] 102 % of control | [3] 96 % of control

Cc1ccc2nc(O)cc(=O)n2c1
inactive: endpoint: mean survival time, dose: 50.0 mg/kg/injection, schedule: Q01DX001 (ip), vehicle: saline 103 % of control | [4] 103 % of control | [5] 97 % of control | [6] 94 % of control

CCCCNc1nc2c(N)ncnc2n1C1OC(CO)C(O)C1O (stereo not given)
inactive: endpoint: mean survival time, dose: 12.5 mg/kg/injection, schedule: Q01DX005 (ip), vehicle: distilled water + Tween-80 100 % of control and 97 % of control | endpoint: mean survival time, dose: 25.0 mg/kg/injection, schedule: Q01DX005 (ip), vehicle: distilled water + Tween-80 102 % of control and 100 % of control | endpoint: mean survival time, dose: 50.0 mg/kg/injection, schedule: Q01DX005 (ip), vehicle: distilled water + Tween-80 100 % of control | endpoint: mean survival time, dose: 100.0 mg/kg/injection, schedule: Q01DX005 (ip), vehicle: distilled water + Tween-80 100 % of control and 102 % of control | endpoint: mean survival time, dose: 200.0 mg/kg/injection, schedule: Q01DX005 (ip), vehicle: distilled water + Tween-80 100 % of control and 103 % of control

O=C(N/N=C/c1ccc(Cl)cc1Cl)c1ccccc1
inactive: [7] 110 % of control | [8] 103 % of control | [9] 86 % of control

O=S(=O)(/N=C/c1ccccc1)c1ccc(Cl)cc1
inactive: [10] 100 % of control | [1] 107 % of control

Cc1cccc(=O)n1Cc1ccccc1
inactive: [11] 95 % of control | [12] 95 % of control | [13] 95 % of control

Cc1ccc(Cl)cc1NC(=O)Nc1nccs1
inactive: [7] 91 % of control | [8] 91 % of control | [9] 102 % of control

CCOP(=S)(OCC)Oc1cccc(NC(=O)N(C)C)c1
inactive: [11] 96 % of control | [12] 91 % of control | [13] 99 % of control

CCCC[CH2][Pb]([CH2]CCCC)([CH2]CCCC)[O]C(C)=O
inactive: endpoint: mean survival time, dose: 0.25 mg/kg/injection, schedule: Q01DX009 (ip), vehicle: saline with Tween-80 96 % of control | endpoint: mean survival time, dose: 0.5 mg/kg/injection, schedule: Q01DX009 (ip), vehicle: saline with Tween-80 93 % of control | endpoint: mean survival time, dose: 1.0 mg/kg/injection, schedule: Q01DX009 (ip), vehicle: saline with Tween-80 90 % of control | endpoint: mean survival time, dose: 1.0 mg/kg/injection, schedule: Q04DX003 (ip), vehicle: saline with Tween-80 95 % of control

CCOC(=O)NC(CCl)C(=O)OC (stereo not given)
inactive: [1] 104 % of control | [2] 98 % of control | [3] 98 % of control

Cc1nc(N)[nH]c(=O)c1NC(=O)c1ccc(N=[N+]=[N-])cc1
inactive: endpoint: mean survival time, dose: 12.5 mg/kg/injection, schedule: Q01DX001 (ip), vehicle: saline with Tween-80 90 % of control | endpoint: mean survival time, dose: 12.5 mg/kg/injection, schedule: Q01DX009 (ip), vehicle: saline with Tween-80 89 % of control | endpoint: mean survival time, dose: 12.5 mg/kg/injection, schedule: Q04DX003 (ip), vehicle: saline with Tween-80 97 % of control | endpoint: mean survival time, dose: 25.0 mg/kg/injection, schedule: Q01DX001 (ip), vehicle: saline with Tween-80 95 % of control | endpoint: mean survival time, dose: 25.0 mg/kg/injection, schedule: Q01DX009 (ip), vehicle: saline with Tween-80 94 % of control | [14] 97 % of control | endpoint: mean survival time, dose: 50.0 mg/kg/injection, schedule: Q01DX001 (ip), vehicle: saline with Tween-80 94 % of control | [10] 91 % of control | [15] 96 % of control

O=[N+]([O-])c1ccc(S(=O)(=O)OCc2ccccc2OS(=O)(=O)c2ccc([N+](=O)[O-])cc2)cc1
inactive: [14] 109 % of control | [15] 106 % of control | [11] 93 % of control

CCOC(=O)c1cnc(SC)nc1NCc1cccc(C)c1
inactive: endpoint: mean survival time, dose: 100.0 mg/kg/injection, schedule: Q01DX001 (ip), vehicle: saline with Tween-80 98 % of control | endpoint: mean survival time, dose: 200.0 mg/kg/injection, schedule: Q01DX001 (ip), vehicle: saline with Tween-80 96 % of control | endpoint: mean survival time, dose: 400.0 mg/kg/injection, schedule: Q01DX001 (ip), vehicle: saline with Tween-80 91 % of control

COc1cc(CC(C)N)ccc1O (stereo not given)
inactive: [11] 105 % of control | [12] 100 % of control | [13] 89 % of control

C#CCOC1CCCC1O (stereo not given)
inactive: endpoint: mean survival time, dose: 100.0 mg/kg/injection, schedule: Q04DX003 (ip), vehicle: acetone 101 % of control

CCOC(OCC)c1cc(=O)[nH]c(N)n1
inactive: [4] 103 % of control | [5] 101 % of control | [6] 100 % of control

Cc1cc2c(=O)c(C)c[nH]c2cc1Cl
inactive: [7] 89 % of control | [8] 86 % of control

CN(C)S(=O)(=O)C#Cc1ccccc1
inactive: [11] 104 % of control | [12] 97 % of control | [13] 102 % of control

Nc1cc2c(cc1Br)-c1c(C(=O)O)cccc1C2O (stereo not given)
inactive: endpoint: median survival time, dose: 50.0 mg/kg/injection, schedule: Q01DX005 (ip), vehicle: sodium bicarbonate 100 % of control | endpoint: median survival time, dose: 100.0 mg/kg/injection, schedule: Q01DX005 (ip), vehicle: sodium bicarbonate 101 % of control | endpoint: median survival time, dose: 200.0 mg/kg/injection, schedule: Q01DX005 (ip), vehicle: sodium bicarbonate 113 % of control | endpoint: median survival time, dose: 400.0 mg/kg/injection, schedule: Q01DX005 (ip), vehicle: sodium bicarbonate 122 % of control | endpoint: median survival time, dose: 800.0 mg/kg/injection, schedule: Q01DX005 (ip), vehicle: sodium bicarbonate 122 % of control

COc1ccc(NC(=O)C2C3C=CC(C3)C2C(=O)O)cc1 (stereo not given)
inactive: [11] 98 % of control | [12] 98 % of control

O=C1CC(c2ccccc2)=NCCN1
inactive: endpoint: mean survival time, dose: 100.0 mg/kg/injection, schedule: Q01DX001 (ip), vehicle: Klucel (hydroxypropylcellulose) (HPC) 100 % of control | endpoint: mean survival time, dose: 200.0 mg/kg/injection, schedule: Q01DX001 (ip), vehicle: Klucel (hydroxypropylcellulose) (HPC) 102 % of control | endpoint: mean survival time, dose: 400.0 mg/kg/injection, schedule: Q01DX001 (ip), vehicle: Klucel (hydroxypropylcellulose) (HPC) 103 % of control

CN1C(=O)C(Cl)=C(Cl)C1=O
inactive: endpoint: mean survival time, dose: 1.56 mg/kg/injection, schedule: Q04DX003 (ip), vehicle: saline 103 % of control | endpoint: mean survival time, dose: 3.13 mg/kg/injection, schedule: Q04DX003 (ip), vehicle: saline 101 % of control | endpoint: mean survival time, dose: 6.25 mg/kg/injection, schedule: Q04DX003 (ip), vehicle: saline 101 % of control

COc1cc(OC)c(OC)cc1/C=C/c1ccc2ccccc2n1
inactive: [11] 92 % of control | [12] 96 % of control | [13] 96 % of control

O=C(O)C(=O)O.O=C(O)C(=O)O.O=C(O)C(=O)O.[Co]
inactive: endpoint: mean survival time, dose: 50.0 mg/kg/injection, schedule: Q04DX002 (ip), vehicle: saline 93 % of control

CC(CP(=O)(c1ccccc1)c1ccccc1)C(=O)O (stereo not given)
inactive: [11] 92 % of control | [12] 95 % of control | [13] 101 % of control

Cn1cccnc1=O
inactive: endpoint: mean survival time, dose: 100.0 mg/kg/injection, schedule: Q04DX002 (ip), vehicle: saline 106 % of control | endpoint: mean survival time, dose: 200.0 mg/kg/injection, schedule: Q04DX002 (ip), vehicle: saline 95 % of control | endpoint: mean survival time, dose: 400.0 mg/kg/injection, schedule: Q04DX002 (ip), vehicle: saline 106 % of control

CC1(C)OC2C(/C=N/O)OC(n3ccc(=O)[nH]c3=O)C2O1 (stereo not given)
inactive: endpoint: median survival time, dose: 23.13 mg/kg/injection, schedule: Q01DX005 (ip), vehicle: Klucel (hydroxypropylcellulose) (HPC) 107 % of control | endpoint: median survival time, dose: 46.25 mg/kg/injection, schedule: Q01DX005 (ip), vehicle: Klucel (hydroxypropylcellulose) (HPC) 102 % of control | endpoint: median survival time, dose: 92.5 mg/kg/injection, schedule: Q01DX005 (ip), vehicle: Klucel (hydroxypropylcellulose) (HPC) 102 % of control | endpoint: median survival time, dose: 185.0 mg/kg/injection, schedule: Q01DX005 (ip), vehicle: Klucel (hydroxypropylcellulose) (HPC) 108 % of control

O=C(O)CCC1(CCC(=O)O)OCCO1.[Ag]
inactive: endpoint: mean survival time, dose: 9.5 mg/kg/injection, schedule: Q01DX009 (ip), vehicle: saline sonified 92 % of control | endpoint: mean survival time, dose: 18.75 mg/kg/injection, schedule: Q01DX009 (ip), vehicle: saline with Tween-80 92 % of control | endpoint: mean survival time, dose: 19.0 mg/kg/injection, schedule: Q01DX009 (ip), vehicle: saline sonified 95 % of control | endpoint: mean survival time, dose: 37.5 mg/kg/injection, schedule: Q01DX009 (ip), vehicle: saline with Tween-80 92 % of control | endpoint: mean survival time, dose: 38.0 mg/kg/injection, schedule: Q01DX009 (ip), vehicle: saline sonified 95 % of control
